Data taken from patent US20100292231A1, “Indazole Compounds for Treating Inflammatory Disorders, Demyelinating Disorders and Cancers” (priority 2007, published 2010).
Like-named read-outs stand apart in the source and are kept apart here.

Experiments:
MV-4-11 = assay: MTS cellular proliferation assay; format: cell-based; conditions: Homo sapiens, MV4-11, 72 hour incubation, read-out: Growth inhibitory activity (in vivo EC50 nM)
Description: (§1) The viability of Flt3 expressing cells can be evaluated using a tetrazolium salt reduction cell-based assay. […] BaF3, both wild type and mutant, as well as transfected strains, MV4-11 and MOLM14 are well-characterized Flt3-dependent humanized or human cell lines which express active Flt3 receptors (see, Yee et al. Blood (2002)100 (8):2941-2949; Levis et al. (2002) 99(11): 3885-3891). These cell lines were used to determine the ability of the compounds provided herein to inhibit Flt3 in intact cells. In each case, and by methods known to those practiced in the art of cell culture, proliferation was measured after 72 hour incubation with the compounds provided herein using a standard MTS protocol (Promega Cat #5430 “Cell Titer 96 Aqueous Non-radioactive Cell Proliferation Assay”).
(§2) In general, cells were plated at 10,000-20,000 cells per well in DMEM medium with 0.5% serum. The compound plate was set up by aliquoting into column 1 of a 96 well 300 ul polypropylene plate, the negative control (DMSO), aliquoting into column 12 the positive control and titrating the test compound in serial dilutions into columns 2-1 l. An aliquot from each well of the compound plate was transferred to the plated cells and then incubated @ […] in 5% CO2. [00538] MTS tetrazolium compound (Owen's reagent) was thawed in a H2O bath. 20 μl of MTS tetrazolium was added to each well of optical plate and the cells were incubated @ 37° C. in 5% CO2 for 2 hours. The absorbance measured at 490 nm using a microplate reader.

BaF3-D835N = target: T1, BaF3-D835N (Homo sapiens, UniProt P36888, D835N, cells depend on it); assay: MTS cellular proliferation assay; format: cell-based; conditions: 72 hour incubation, read-out: Growth inhibitory activity (in vivo EC50 nM)
T1 sequence (P36888 1-993 D835N): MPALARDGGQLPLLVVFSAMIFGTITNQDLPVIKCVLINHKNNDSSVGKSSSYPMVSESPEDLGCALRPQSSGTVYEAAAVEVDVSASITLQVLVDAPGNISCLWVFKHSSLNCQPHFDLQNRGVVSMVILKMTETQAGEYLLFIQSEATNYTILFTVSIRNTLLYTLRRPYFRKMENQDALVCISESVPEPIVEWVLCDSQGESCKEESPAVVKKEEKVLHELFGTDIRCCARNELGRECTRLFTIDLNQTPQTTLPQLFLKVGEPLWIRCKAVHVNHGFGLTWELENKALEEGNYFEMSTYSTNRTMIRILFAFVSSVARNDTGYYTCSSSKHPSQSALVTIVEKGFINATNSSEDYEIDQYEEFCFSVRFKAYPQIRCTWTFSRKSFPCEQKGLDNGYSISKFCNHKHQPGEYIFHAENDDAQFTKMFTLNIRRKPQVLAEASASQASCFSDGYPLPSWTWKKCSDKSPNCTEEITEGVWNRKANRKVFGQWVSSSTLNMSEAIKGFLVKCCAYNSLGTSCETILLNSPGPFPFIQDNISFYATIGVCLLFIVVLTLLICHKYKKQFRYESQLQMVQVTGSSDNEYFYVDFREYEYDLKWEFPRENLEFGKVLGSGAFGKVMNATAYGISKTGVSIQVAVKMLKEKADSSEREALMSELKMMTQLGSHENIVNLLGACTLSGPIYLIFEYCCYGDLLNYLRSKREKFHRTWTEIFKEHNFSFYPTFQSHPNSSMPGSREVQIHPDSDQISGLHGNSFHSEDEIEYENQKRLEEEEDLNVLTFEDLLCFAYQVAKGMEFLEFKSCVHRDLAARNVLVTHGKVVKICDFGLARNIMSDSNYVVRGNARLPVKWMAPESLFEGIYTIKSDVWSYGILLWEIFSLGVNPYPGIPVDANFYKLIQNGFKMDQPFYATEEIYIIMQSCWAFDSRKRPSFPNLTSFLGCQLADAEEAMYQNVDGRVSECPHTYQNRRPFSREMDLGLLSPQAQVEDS
Description: as §1, §2

AURKC (Aurora C) = target: T2, AURKC (Aurora C) (Homo sapiens, UniProt Q9UQB9); assay: SelectScreen kinase specificity survey; format: biochemical; conditions: estimated, abridged dose response curve, read-out: Kinase inhibitory activity EC50
T2 construct: purchased Invitrogen, Inc. (SelectScreen service)
T2 sequence (Q9UQB9 whole entry): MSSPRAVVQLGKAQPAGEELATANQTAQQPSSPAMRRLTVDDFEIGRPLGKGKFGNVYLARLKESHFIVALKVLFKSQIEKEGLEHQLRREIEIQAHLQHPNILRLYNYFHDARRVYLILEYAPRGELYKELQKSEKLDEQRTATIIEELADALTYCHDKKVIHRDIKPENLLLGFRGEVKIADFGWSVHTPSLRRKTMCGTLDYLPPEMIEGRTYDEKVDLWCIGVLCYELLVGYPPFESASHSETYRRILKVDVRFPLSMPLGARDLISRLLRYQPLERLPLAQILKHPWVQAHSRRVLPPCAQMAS
Method: (§3) Testing of the compounds described in this invention was carried out using the SelectScreen™ platform from Invitrogen, Inc. (Carlsbad. Calif., USA) and the details of its performance are readily viewed via the web by linking to: http://www.invitrogen.com/downloads/SelectScrn_Brochure.pdf.
(§4) Briefly, the approach is based on treating each specific kinase with a unique substrate and optical reporter system in the presence of ATP at 100 micromolar. In controls, the substrate is phosphorylated and a baseline optimal response is recorded.
(§5) The compounds were then re-tested by adding graded amounts of putative inhibitor which were added in 5 separate increments to generate a dose response curve. The latter is obtained by fitting to a 4 parameter Hill equation, a sigmoid saturation equation.
(§6) The same assay system described in Example 2 can be applied in the determination of kinase specificity. It is well understood by medicinal chemists in the development of kinase inhibitors that the resulting molecules often lack specificity. Not only are homologous kinases inhibited by the same class of compounds, but also non-homologous kinases can be affected by allosteric, induced, activated vs inactivated conformation, and protein folding interactions with the putative inhibitor, which otherwise had been designed to be specific. These off target effects are difficult to predict and can only be ruled in or out by empirically surveying a large set of kinases. It is also understood that changes to scaffolds and variation in their chemical decorations may influence the extent of promiscuity in the patterns of kinase inhibition across kinase classes.
(§7) The following experiment was conducted to address this issue. The indazole compound (IV), described in Example 2 and representative of the new genus was tested along with Symadex against a panel of 230 kinases representative of all known kinases classes. Included in the survey were the Flt3, its mutant, and close relatives in the Class III receptor tyrosine kinase class, together with serine-threonine kinases and atypical kinases many of which share no homology of active site with Flt3 as shown, for example, in the respective “genecard” for each kinase and available for inspection at on the web at http://www.genecards.org/.
(§8) Table 3 lists the estimated EC50 values from an abridged dose response curve for Symadex (C-1311) and CF-123. The kinases are listed alphabetically by Group and Family.

DYRK4 = target: T3, DYRK4 (Homo sapiens, UniProt Q9NR20); assay: SelectScreen kinase specificity survey; format: biochemical
T3 construct: purchased Invitrogen (SelectScreen platform)
T3 sequence (Q9NR20 whole entry): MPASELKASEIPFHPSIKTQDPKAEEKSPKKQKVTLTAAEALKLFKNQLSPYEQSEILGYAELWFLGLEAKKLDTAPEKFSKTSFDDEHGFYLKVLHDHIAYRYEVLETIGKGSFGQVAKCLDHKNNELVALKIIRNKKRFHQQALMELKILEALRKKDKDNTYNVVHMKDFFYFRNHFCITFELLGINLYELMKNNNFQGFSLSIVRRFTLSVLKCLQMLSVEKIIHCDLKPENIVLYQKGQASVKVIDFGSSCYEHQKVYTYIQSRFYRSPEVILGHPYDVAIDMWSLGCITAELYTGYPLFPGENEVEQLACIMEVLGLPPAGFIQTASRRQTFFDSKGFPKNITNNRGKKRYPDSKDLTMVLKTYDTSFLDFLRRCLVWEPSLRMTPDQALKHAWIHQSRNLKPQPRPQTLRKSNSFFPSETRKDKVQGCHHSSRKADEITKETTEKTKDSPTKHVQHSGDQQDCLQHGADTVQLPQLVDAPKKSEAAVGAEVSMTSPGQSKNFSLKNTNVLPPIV
Method: as §3, §4, §5, §6, §7, §8

CHEK2 (CHK2) = target: T4, CHEK2 (CHK2) (Homo sapiens, UniProt O96017); assay: SelectScreen kinase specificity survey; format: biochemical; conditions: estimated, abridged dose response curve, read-out: Kinase inhibitory activity EC50
T4 construct: purchased Invitrogen, Inc. (SelectScreen platform)
T4 sequence (O96017 whole entry): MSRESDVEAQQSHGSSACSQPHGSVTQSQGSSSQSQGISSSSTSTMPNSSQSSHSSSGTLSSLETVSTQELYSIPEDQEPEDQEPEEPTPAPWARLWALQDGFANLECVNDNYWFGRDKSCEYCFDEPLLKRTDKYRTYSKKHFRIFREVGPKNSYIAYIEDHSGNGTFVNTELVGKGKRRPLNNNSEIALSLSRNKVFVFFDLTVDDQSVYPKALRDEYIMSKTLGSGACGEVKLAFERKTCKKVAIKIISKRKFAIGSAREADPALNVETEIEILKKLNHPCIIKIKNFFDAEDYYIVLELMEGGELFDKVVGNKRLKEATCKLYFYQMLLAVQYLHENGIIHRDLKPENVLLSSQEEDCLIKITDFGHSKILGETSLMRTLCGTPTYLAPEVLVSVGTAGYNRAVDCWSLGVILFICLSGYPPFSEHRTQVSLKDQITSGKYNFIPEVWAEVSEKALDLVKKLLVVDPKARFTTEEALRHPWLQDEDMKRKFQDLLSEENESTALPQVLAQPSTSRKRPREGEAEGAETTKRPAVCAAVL
Method: as §3, §4, §5, §6, §7, §8

MET M1250T = target: T5, MET M1250T (Homo sapiens, UniProt P08581, M1250T); assay: SelectScreen kinase specificity survey; format: biochemical; conditions: estimated, abridged dose response curve, read-out: Kinase inhibitory activity EC50
T5 construct: purchased Invitrogen (SelectScreen platform)
T5 sequence (P08581 25-1390 M1250T): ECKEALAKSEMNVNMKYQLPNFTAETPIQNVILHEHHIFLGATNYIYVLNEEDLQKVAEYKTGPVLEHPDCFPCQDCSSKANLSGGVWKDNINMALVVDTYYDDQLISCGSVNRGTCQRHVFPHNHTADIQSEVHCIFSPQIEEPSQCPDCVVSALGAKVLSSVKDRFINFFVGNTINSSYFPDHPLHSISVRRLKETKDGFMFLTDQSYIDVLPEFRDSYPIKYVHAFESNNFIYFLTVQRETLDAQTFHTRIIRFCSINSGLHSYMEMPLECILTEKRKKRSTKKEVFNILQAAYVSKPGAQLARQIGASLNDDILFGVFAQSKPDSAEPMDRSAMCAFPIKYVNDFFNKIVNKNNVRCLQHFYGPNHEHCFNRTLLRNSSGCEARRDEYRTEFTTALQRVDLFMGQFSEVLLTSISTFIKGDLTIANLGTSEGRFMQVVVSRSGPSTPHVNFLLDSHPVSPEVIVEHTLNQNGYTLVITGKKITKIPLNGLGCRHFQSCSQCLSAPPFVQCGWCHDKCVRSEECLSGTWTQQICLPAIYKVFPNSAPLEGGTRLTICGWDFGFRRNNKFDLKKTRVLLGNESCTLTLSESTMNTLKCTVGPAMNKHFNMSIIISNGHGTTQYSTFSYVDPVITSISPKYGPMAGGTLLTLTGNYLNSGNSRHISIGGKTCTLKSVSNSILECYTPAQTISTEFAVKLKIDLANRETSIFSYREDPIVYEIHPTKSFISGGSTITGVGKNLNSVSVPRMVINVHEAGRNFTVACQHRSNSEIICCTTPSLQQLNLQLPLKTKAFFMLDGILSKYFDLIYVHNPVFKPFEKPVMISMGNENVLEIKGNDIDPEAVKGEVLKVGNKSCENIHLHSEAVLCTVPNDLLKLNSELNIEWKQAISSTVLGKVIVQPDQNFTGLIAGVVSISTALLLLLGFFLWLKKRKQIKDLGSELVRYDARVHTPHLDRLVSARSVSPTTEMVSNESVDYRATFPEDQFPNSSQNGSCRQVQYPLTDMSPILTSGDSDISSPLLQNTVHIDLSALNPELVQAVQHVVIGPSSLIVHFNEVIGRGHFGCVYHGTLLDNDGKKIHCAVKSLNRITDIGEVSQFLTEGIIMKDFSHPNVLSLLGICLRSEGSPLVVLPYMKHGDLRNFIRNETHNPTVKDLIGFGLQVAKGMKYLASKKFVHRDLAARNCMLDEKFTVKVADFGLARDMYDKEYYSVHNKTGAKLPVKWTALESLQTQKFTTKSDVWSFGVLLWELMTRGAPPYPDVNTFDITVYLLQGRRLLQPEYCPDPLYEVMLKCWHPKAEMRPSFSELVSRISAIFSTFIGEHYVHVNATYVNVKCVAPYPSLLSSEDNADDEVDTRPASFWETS
Method: as §3, §4, §5, §6, §7, §8

| EC50 (MV-4-11) [nM] | EC50 (BaF3-D835N) [nM] | EC50 (DYRK4; DYRK4, estimated, abridged dose response curve, read-out: Kinase inhibitory activity EC50) [µM] | SMILES | EC50 (AURKC (Aurora C)) [µM] | EC50 (CHEK2 (CHK2)) [µM] | EC50 (MET M1250T) [µM] | EC50 (DYRK4) [µM] |
| --- | --- | --- | --- | --- | --- | --- | --- |
| 184 | 316 |  | CN(C)CCCCCNc1ccc2ncn3c4ccc5[nH]ncc5c4c(=O)c1c23 [(III)] |  |  |  |  |
| 12 | 12 | > 5 | CN(C)CCCNc1ccc2ncn3c4ccc5[nH]ncc5c4c(=O)c1c23 [Compound (IV)] | > 5 | > 5 | > 5 |  |

| SMILES | EC50 (MV-4-11) [nM] | EC50 (BaF3-D835N) [nM] | EC50 (DYRK4; DYRK4, estimated, abridged dose response curve, read-out: Kinase inhibitory activity EC50) [µM] | EC50 (AURKC (Aurora C)) [µM] | EC50 (CHEK2 (CHK2)) [µM] | EC50 (MET M1250T) [µM] | EC50 (DYRK4) [µM] |
| --- | --- | --- | --- | --- | --- | --- | --- |
| CCN(CC)CCNc1ccc2ncn3c4ccc(O)cc4c(=O)c1c23 [Symadex, 5-(2-(diethylamino)ethylamino)-8-hydroxy-6H-imidazo[4,5,1-de]acridin-6-one, reference compound] | 13.1 | 14.3 |  | > 5 | > 5 | > 5 | > 5 |
